# Data: PMC5218480 (PLoS ONE, 2017)
# Test system: MV-4-11 cells
# Assay: Gene expression microarray analysis (Affymetrix PrimeView) and GSEA
# Type: cell-based, human
# Set-up: RFU PODN (11730768_x_at) / Fold change /veh PODN (11730768_x_at) / RFU LINC00158 (11744669_a_at) / Fold change /veh LINC00158 (11744669_a_at) / RFU DUSP10 (11751237_a_at) / Fold change /veh DUSP10 (11751237_a_at) / RFU ID3 (11757404_x_at) / Fold change /veh ID3 (11757404_x_at) / RFU PLEKHG5 (11737974_s_at) / Fold change /veh PLEKHG5 (11737974_s_at) / RFU LRRC4B (11730491_at) / Fold change /veh LRRC4B (11730491_at) / RFU GIMAP4 (11747438_a_at) / Fold change /veh GIMAP4 (11747438_a_at) / RFU KRT8 (11758183_x_at) / Fold change /veh KRT8 (11758183_x_at) / RFU CNN1 (11734310_a_at) / Fold change /veh CNN1 (11734310_a_at) / RFU VPS37D (11726825_at) / Fold change /veh VPS37D (11726825_at) / RFU C10orf10 (11716522_x_at) / Fold change /veh C10orf10 (11716522_x_at) / RFU KIR2DL2 /// KIR2DL4 /// KIR2DL5A /// KIR2DL5B /// KIR2DS1 /// KIR2DS2 /// KIR2DS3 /// KIR2DS4 /// KIR3DL3 /// KIR3DL3 /// KIR3DS1 (11738374_at) / Fold change /veh KIR2DL2 /// KIR2DL4 /// KIR2DL5A /// KIR2DL5B /// KIR2DS1 /// KIR2DS2 /// KIR2DS3 /// KIR2DS4 /// KIR3DL3 /// KIR3DL3 /// KIR3DS1 (11738374_at) / RFU C1QL1 (11718748_at) / Fold change /veh C1QL1 (11718748_at) / RFU TMPRSS4 (11747572_a_at) / Fold change /veh TMPRSS4 (11747572_a_at) / RFU HAMP (11756126_x_at) / Fold change /veh HAMP (11756126_x_at) / RFU RNFT2 (11725882_a_at) / Fold change /veh RNFT2 (11725882_a_at) / RFU NR4A2 (11747474_a_at) / Fold change /veh NR4A2 (11747474_a_at) / RFU ABCC12 (11746883_a_at) / Fold change /veh ABCC12 (11746883_a_at) / RFU TMEM136 (11760407_x_at) / Fold change /veh TMEM136 (11760407_x_at) / RFU CLDN22 /// WWC2 (11732394_at) / Fold change /veh CLDN22 /// WWC2 (11732394_at) / RFU HLA-DPB1 (11760878_x_at) / Fold change /veh HLA-DPB1 (11760878_x_at) / RFU SPINT1 (11716480_a_at) / Fold change /veh SPINT1 (11716480_a_at) / RFU GAP43 (11754022_s_at) / Fold change /veh GAP43 (11754022_s_at) / RFU A4GNT (11735810_at) / Fold change /veh A4GNT (11735810_at) / RFU PRB3 (11715151_x_at) / Fold change /veh PRB3 (11715151_x_at) / RFU TUBB4B (11761932_at) / Fold change /veh TUBB4B (11761932_at) / RFU CAPN14 (11732068_a_at) / Fold change /veh CAPN14 (11732068_a_at) / RFU TMCC2 (11721928_a_at) / Fold change /veh TMCC2 (11721928_a_at) / RFU IRGQ (11745062_a_at) / Fold change /veh IRGQ (11745062_a_at) / RFU FAM174B (11720279_a_at) / Fold change /veh FAM174B (11720279_a_at) / RFU TMPRSS4 (11748680_a_at) / Fold change /veh TMPRSS4 (11748680_a_at) / RFU FAM212B (11763350_a_at) / Fold change /veh FAM212B (11763350_a_at) / RFU PLEKHG5 (11743358_a_at) / Fold change /veh PLEKHG5 (11743358_a_at) / RFU ZSCAN30 (11745921_a_at) / Fold change /veh ZSCAN30 (11745921_a_at) / RFU CMKLR1 (11741424_a_at) / Fold change /veh CMKLR1 (11741424_a_at) / RFU LOC101060620 /// MAPK8IP1 (11723275_at) / Fold change /veh LOC101060620 /// MAPK8IP1 (11723275_at) / RFU SPTSSB (11747773_x_at) / Fold change /veh SPTSSB (11747773_x_at) / RFU PRSS12 (11739890_at) / Fold change /veh PRSS12 (11739890_at) / RFU BIN1 (11741810_x_at) / Fold change /veh BIN1 (11741810_x_at) / RFU WNT11 (11732464_a_at) / Fold change /veh WNT11 (11732464_a_at) / RFU C10orf10 (11716521_a_at) / Fold change /veh C10orf10 (11716521_a_at) / RFU C5orf56 (11738089_at) / Fold change /veh C5orf56 (11738089_at) / RFU CYB561 (11721691_x_at) / Fold change /veh CYB561 (11721691_x_at) / RFU ANKRD19P (11752326_a_at) / Fold change /veh ANKRD19P (11752326_a_at) / RFU OR2T12 /// OR2T33 /// OR2T8 (11738714_s_at) / Fold change /veh OR2T12 /// OR2T33 /// OR2T8 (11738714_s_at) / RFU VCAN (11748164_a_at) / Fold change /veh VCAN (11748164_a_at) / RFU JSRP1 (11732532_at) / Fold change /veh JSRP1 (11732532_at) / RFU KRTAP10-11 (11738290_x_at) / Fold change /veh KRTAP10-11 (11738290_x_at) / RFU MYO3A (11730013_a_at) / Fold change /veh MYO3A (11730013_a_at) / RFU EBF3 (11725865_a_at) / Fold change /veh EBF3 (11725865_a_at) / RFU CAMK2N1 (11719241_x_at) / Fold change /veh CAMK2N1 (11719241_x_at) / RFU C5orf56 (11738088_a_at) / Fold change /veh C5orf56 (11738088_a_at) / RFU OLFML3 (11715873_a_at) / Fold change /veh OLFML3 (11715873_a_at) / RFU LOC100653217 /// NTM (11731650_a_at) / Fold change /veh LOC100653217 /// NTM (11731650_a_at) / RFU MAPK11 (11762145_a_at) / Fold change /veh MAPK11 (11762145_a_at) / RFU FIZ1 (11724087_x_at) / Fold change /veh FIZ1 (11724087_x_at) / RFU OASL (11726364_x_at) / Fold change /veh OASL (11726364_x_at) / RFU SOX15 (11748057_x_at) / Fold change /veh SOX15 (11748057_x_at) / RFU CD79A (11719716_a_at) / Fold change /veh CD79A (11719716_a_at) / RFU HIST1H1D (11736915_at) / Fold change /veh HIST1H1D (11736915_at) / RFU CASKIN2 (11723855_a_at) / Fold change /veh CASKIN2 (11723855_a_at) / RFU LOC730098 (11760151_x_at) / Fold change /veh LOC730098 (11760151_x_at) / RFU OR4N2 (11742367_at) / Fold change /veh OR4N2 (11742367_at) / RFU PRRT2 (11749266_a_at) / Fold change /veh PRRT2 (11749266_a_at) / RFU SNX32 (11753110_a_at) / Fold change /veh SNX32 (11753110_a_at) / RFU CDHR5 (11726645_a_at) / Fold change /veh CDHR5 (11726645_a_at) / RFU RCAN1 (11760418_a_at) / Fold change /veh RCAN1 (11760418_a_at) / RFU FAM167A (11723789_a_at) / Fold change /veh FAM167A (11723789_a_at) / RFU FAM26E (11764081_at) / Fold change /veh FAM26E (11764081_at) / RFU ISYNA1 (11749810_s_at) / Fold change /veh ISYNA1 (11749810_s_at) / RFU ACY1 (11761880_at) / Fold change /veh ACY1 (11761880_at) / RFU 11764098_at / Fold change /veh 11764098_at / RFU SAMD14 (11745864_x_at) / Fold change /veh SAMD14 (11745864_x_at) / RFU NPB (11741838_a_at) / Fold change /veh NPB (11741838_a_at) / RFU TMPRSS6 (11731388_a_at) / Fold change /veh TMPRSS6 (11731388_a_at) / RFU KRTAP10-2 (11738614_at) / Fold change /veh KRTAP10-2 (11738614_at) / RFU ARHGAP8 /// PRR5-ARHGAP8 (11727945_x_at) / Fold change /veh ARHGAP8 /// PRR5-ARHGAP8 (11727945_x_at) / RFU KRTAP5-7 /// NADSYN1 (11734609_at) / Fold change /veh KRTAP5-7 /// NADSYN1 (11734609_at) / RFU RASL12 (11751679_a_at) / Fold change /veh RASL12 (11751679_a_at) / RFU CDKN2B (11736163_a_at) / Fold change /veh CDKN2B (11736163_a_at) / RFU PRF1 (11729649_at) / Fold change /veh PRF1 (11729649_at) / RFU, ZNF638 /// ZNF638-IT1 / Fold change vs veh, ZNF638 /// ZNF638-IT1 / RFU, PANK3 / Fold change vs veh, PANK3 / RFU, SH3YL1 / Fold change vs veh, SH3YL1 / RFU, ZEB2 / Fold change vs veh, ZEB2 / RFU, NRIP1 / Fold change vs veh, NRIP1 / RFU, PTTG1IP / Fold change vs veh, PTTG1IP / RFU, CAPN2 / Fold change vs veh, CAPN2 / RFU, MED14 / Fold change vs veh, MED14 / RFU, SNORA58 / Fold change vs veh, SNORA58 / RFU, C1orf63 / Fold change vs veh, C1orf63 / RFU, LRRFIP1 / Fold change vs veh, LRRFIP1 / RFU, NDUFAF7 / Fold change vs veh, NDUFAF7 / RFU, SLC12A2 / Fold change vs veh, SLC12A2 / RFU, IBTK / Fold change vs veh, IBTK / RFU, ESF1 / Fold change vs veh, ESF1 / Fold change vs veh, TMEM50B / RFU, TAOK1 / Fold change vs veh, TAOK1 / RFU, ACBD3 / Fold change vs veh, ACBD3 / RFU, TMA16 / Fold change vs veh, TMA16 / RFU, RWDD3 / Fold change vs veh, RWDD3 / RFU, BCAT1 / Fold change vs veh, BCAT1 / RFU, EDEM3 / Fold change vs veh, EDEM3 / RFU, TMEM33 / Fold change vs veh, TMEM33 / RFU, WDR75 / Fold change vs veh, WDR75 / RFU, AHCTF1 / Fold change vs veh, AHCTF1 / RFU, TFRC / Fold change vs veh, TFRC / RFU, ZDHHC17 / Fold change vs veh, ZDHHC17 / RFU, NOM1 / Fold change vs veh, NOM1 / RFU, ARL8B / Fold change vs veh, ARL8B / RFU, ZBTB11 / Fold change vs veh, ZBTB11 / RFU, TAMM41 / Fold change vs veh, TAMM41 / RFU, KIAA1704 /// LOC100996395 / Fold change vs veh, KIAA1704 /// LOC100996395 / RFU, ING1 / Fold change vs veh, ING1 / RFU, TRMT61B / Fold change vs veh, TRMT61B / RFU, FUBP3 / Fold change vs veh, FUBP3 / RFU, TP53 / Fold change vs veh, TP53 / RFU, TNKS2 / Fold change vs veh, TNKS2 / RFU, ZFP14 / Fold change vs veh, ZFP14 / RFU, ACTR2 / Fold change vs veh, ACTR2 / RFU, PPP3R1 / Fold change vs veh, PPP3R1 / RFU, PIK3R1 / Fold change vs veh, PIK3R1 / RFU, HNRNPA1 / Fold change vs veh, HNRNPA1 / RFU, RNF170 / Fold change vs veh, RNF170 / RFU, ZNF28 / Fold change vs veh, ZNF28 / RFU, RNGTT / Fold change vs veh, RNGTT / RFU, OGT / Fold change vs veh, OGT / RFU, BRD1 / Fold change vs veh, BRD1 / RFU, MARS / Fold change vs veh, MARS / RFU, ZNF655 / Fold change vs veh, ZNF655 / RFU, FAHD1 / Fold change vs veh, FAHD1 / RFU, BDP1 / Fold change vs veh, BDP1 / RFU, LRRCC1 / Fold change vs veh, LRRCC1 / RFU, ARID1A / Fold change vs veh, ARID1A / RFU, ZNF146 / Fold change vs veh, ZNF146 / RFU, ZNF330 / Fold change vs veh, ZNF330 / RFU, GPN3 / Fold change vs veh, GPN3 / RFU, C9orf123 / Fold change vs veh, C9orf123 / RFU, N4BP2L2 / Fold change vs veh, N4BP2L2 / RFU, ARFIP1 / Fold change vs veh, ARFIP1 / RFU, FAM179B / Fold change vs veh, FAM179B / RFU, BCL10 / Fold change vs veh, BCL10 / RFU, UHRF1BP1L / Fold change vs veh, UHRF1BP1L / RFU, BET1 / Fold change vs veh, BET1 / RFU, CNOT2 / Fold change vs veh, CNOT2 / RFU, ZNF268 / Fold change vs veh, ZNF268 / Fold change vs veh, ZNF507 / RFU, DGCR2 / Fold change vs veh, DGCR2 / RFU, WDSUB1 / Fold change vs veh, WDSUB1 / Fold change vs veh, HSP90B1 /// MIR3652 / RFU, ADSS / Fold change vs veh, ADSS / RFU, GK / Fold change vs veh, GK / RFU, ZNF148 / Fold change vs veh, ZNF148 / RFU, TAF9 / Fold change vs veh, TAF9 / RFU, SLC1A5 / Fold change vs veh, SLC1A5 / RFU, SLMO2 / Fold change vs veh, SLMO2 / RFU, ABCC4 / Fold change vs veh, ABCC4 / RFU, LOC101060439 /// RAP1B / Fold change vs veh, LOC101060439 /// RAP1B / RFU, RFX7 / Fold change vs veh, RFX7 / RFU, GTPBP10 / Fold change vs veh, GTPBP10 / RFU, CNEP1R1 / Fold change vs veh, CNEP1R1 / RFU, BIVM-ERCC5 /// ERCC5 / Fold change vs veh, BIVM-ERCC5 /// ERCC5 / RFU, ILF3 / Fold change vs veh, ILF3 / RFU 11762660_at / Fold change /veh 11762660_at / RFU VCAN (11757783_s_at) / Fold change /veh VCAN (11757783_s_at) / RFU DDX43 (11728927_at) / Fold change /veh DDX43 (11728927_at) / RFU KRT8 (11758188_x_at) / Fold change /veh KRT8 (11758188_x_at) / RFU NKD1 (11759106_at) / Fold change /veh NKD1 (11759106_at) / RFU SRD5A1 (11742802_a_at) / Fold change /veh SRD5A1 (11742802_a_at) / RFU TPSAB1 /// TPSB2 (11721975_s_at) / Fold change /veh TPSAB1 /// TPSB2 (11721975_s_at) / RFU GSTM3 (11746129_a_at) / Fold change /veh GSTM3 (11746129_a_at) / RFU IL23R (11737362_x_at) / Fold change /veh IL23R (11737362_x_at) / RFU TMEM51 (11727254_a_at) / Fold change /veh TMEM51 (11727254_a_at) / RFU PIWIL2 (11732686_x_at) / Fold change /veh PIWIL2 (11732686_x_at) / RFU ORM1 (11744905_x_at) / Fold change /veh ORM1 (11744905_x_at) / RFU CCDC152 (11743942_at) / Fold change /veh CCDC152 (11743942_at) / RFU ECM1 (11717891_a_at) / Fold change /veh ECM1 (11717891_a_at) / RFU IL23R (11748794_a_at) / Fold change /veh IL23R (11748794_a_at) / RFU TNFAIP8L3 (11732012_x_at) / Fold change /veh TNFAIP8L3 (11732012_x_at) / RFU MBOAT4 (11741988_at) / Fold change /veh MBOAT4 (11741988_at) / RFU 11764193_at / Fold change /veh 11764193_at / RFU TMEM53 (11763286_at) / Fold change /veh TMEM53 (11763286_at) / RFU MAGEB2 (11727129_at) / Fold change /veh MAGEB2 (11727129_at) / RFU TMEM200A (11744735_a_at) / Fold change /veh TMEM200A (11744735_a_at) / RFU CCDC152 (11751479_a_at) / Fold change /veh CCDC152 (11751479_a_at) / RFU FAM211A (11726209_a_at) / Fold change /veh FAM211A (11726209_a_at) / RFU RGS16 (11746705_a_at) / Fold change /veh RGS16 (11746705_a_at) / RFU VCAN (11755009_s_at) / Fold change /veh VCAN (11755009_s_at) / RFU RHOB (11743442_s_at) / Fold change /veh RHOB (11743442_s_at) / RFU RGS16 (11720943_a_at) / Fold change /veh RGS16 (11720943_a_at) / RFU RGS16 (11720944_at) / Fold change /veh RGS16 (11720944_at) / RFU, VPS4B / Fold change vs veh, VPS4B / RFU, CREB1 / Fold change vs veh, CREB1 / RFU, DNAJC13 / Fold change vs veh, DNAJC13 / RFU, GNAQ / Fold change vs veh, GNAQ / RFU, CDK5R1 / Fold change vs veh, CDK5R1 / RFU, ZRANB3 / Fold change vs veh, ZRANB3 / RFU, CUL4A / Fold change vs veh, CUL4A / RFU, CCNY / Fold change vs veh, CCNY / RFU, UFL1 / Fold change vs veh, UFL1 / RFU, COG3 / Fold change vs veh, COG3 / RFU, DIAPH2 / Fold change vs veh, DIAPH2 / RFU, SKA2 / Fold change vs veh, SKA2 / RFU, AFF3 / Fold change vs veh, AFF3 / RFU, LMF1 / Fold change vs veh, LMF1 / RFU, IPO11 / Fold change vs veh, IPO11 / RFU, DFFB / Fold change vs veh, DFFB / RFU, FOXP1 / Fold change vs veh, FOXP1 / RFU, CARD8 / Fold change vs veh, CARD8 / RFU, STRN3 / Fold change vs veh, STRN3 / RFU, ADK / Fold change vs veh, ADK / RFU, RASSF2 / Fold change vs veh, RASSF2 / RFU, WIPF1 / Fold change vs veh, WIPF1 / RFU, LARP1B / Fold change vs veh, LARP1B / RFU, RASA1 / Fold change vs veh, RASA1 / RFU, RB1 / Fold change vs veh, RB1 / RFU, PPFIA1 / Fold change vs veh, PPFIA1 / RFU, MAT2A / Fold change vs veh, MAT2A / RFU, CCT5 / Fold change vs veh, CCT5 / RFU, WDR92 / Fold change vs veh, WDR92 / RFU, CUX1 / Fold change vs veh, CUX1 / RFU, TTC7A / Fold change vs veh, TTC7A / RFU, TMEM135 / Fold change vs veh, TMEM135 / RFU, DEPTOR / Fold change vs veh, DEPTOR / RFU, CPM / Fold change vs veh, CPM / RFU, DNAJB6 / Fold change vs veh, DNAJB6 / RFU, CACNA2D3 / Fold change vs veh, CACNA2D3 / RFU, DTX4 / Fold change vs veh, DTX4 / RFU, TFCP2 / Fold change vs veh, TFCP2 / RFU, GMCL1 /// GMCL1P1 / Fold change vs veh, GMCL1 /// GMCL1P1 / RFU, AEBP2 / Fold change vs veh, AEBP2 / RFU, SNHG1 /// SNORD22 /// SNORD25 /// SNORD26 /// SNORD27 /// SNORD28 /// SNORD29 /// SNORD31 / Fold change vs veh, SNHG1 /// SNORD22 /// SNORD25 /// SNORD26 /// SNORD27 /// SNORD28 /// SNORD29 /// SNORD31 / Fold change (Aza/veh), C12orf56 (ProbeSet 11735607_a_at) / Fold change (ACY-1035/veh), C12orf56 (ProbeSet 11735607_a_at) / Fold change (Aza/veh), FGFR1OP (ProbeSet 11751329_s_at) / Fold change (ACY-1035/veh), FGFR1OP (ProbeSet 11751329_s_at) / Fold change (Aza/veh), VPS36 (ProbeSet 11739960_a_at) / Fold change (ACY-1035/veh), VPS36 (ProbeSet 11739960_a_at) / RFU SYPL1 (11715823_x_at) / Fold change /veh SYPL1 (11715823_x_at) / RFU IGFBP7 (11715501_s_at) / Fold change /veh IGFBP7 (11715501_s_at) / RFU REEP3 (11722064_at) / Fold change /veh REEP3 (11722064_at) / RFU IGLL1 (11728026_x_at) / Fold change /veh IGLL1 (11728026_x_at): dose or concentration left out as unconfirmed
# Conditions: MV-4-11 cells, 48 hours
smiles,measurement,value
Nc1ncn([C@@H]2O[C@H](CO)[C@@H](O)[C@H]2O)c(=O)n1 [azacitidine],RFU IL23R (11748794_a_at),8.76 RFU
